Experimental data: publication PMC12002339 (Proceedings of the National Academy of Sciences of the …, 2025)

T1: OmpF3 (Escherichia coli, UniProt P02931)
T1 sequence (P02931 23-362): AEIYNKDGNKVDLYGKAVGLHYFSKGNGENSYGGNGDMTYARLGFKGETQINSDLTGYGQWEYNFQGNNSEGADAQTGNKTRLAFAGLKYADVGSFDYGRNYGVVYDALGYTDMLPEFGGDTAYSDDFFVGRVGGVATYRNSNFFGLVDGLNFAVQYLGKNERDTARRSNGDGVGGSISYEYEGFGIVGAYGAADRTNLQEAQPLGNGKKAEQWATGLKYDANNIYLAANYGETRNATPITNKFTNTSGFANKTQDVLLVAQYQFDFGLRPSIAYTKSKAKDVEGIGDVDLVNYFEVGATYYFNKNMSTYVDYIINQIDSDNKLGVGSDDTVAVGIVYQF

T2: OmpF3–MlaA (Escherichia coli, UniProt P02931+P76506)
T2 sequence (P02931 23-362): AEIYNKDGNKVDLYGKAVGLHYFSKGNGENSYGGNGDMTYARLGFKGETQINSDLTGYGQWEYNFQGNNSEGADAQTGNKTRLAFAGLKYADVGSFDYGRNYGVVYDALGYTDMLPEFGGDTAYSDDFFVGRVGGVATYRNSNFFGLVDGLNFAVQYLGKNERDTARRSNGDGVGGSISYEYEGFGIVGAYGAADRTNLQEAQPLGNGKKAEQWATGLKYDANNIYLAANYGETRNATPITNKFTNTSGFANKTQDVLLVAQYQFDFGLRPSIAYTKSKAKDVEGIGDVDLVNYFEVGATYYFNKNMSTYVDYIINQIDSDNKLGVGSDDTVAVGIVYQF
T2 sequence (P76506 18-251): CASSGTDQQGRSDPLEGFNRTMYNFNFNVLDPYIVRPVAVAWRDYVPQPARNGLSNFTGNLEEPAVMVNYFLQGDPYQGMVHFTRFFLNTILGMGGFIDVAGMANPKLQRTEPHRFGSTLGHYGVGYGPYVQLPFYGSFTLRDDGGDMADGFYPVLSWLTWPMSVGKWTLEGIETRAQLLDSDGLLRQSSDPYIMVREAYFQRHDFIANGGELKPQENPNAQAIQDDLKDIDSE

T3: MlaC (Escherichia coli, UniProt P0ADV7)
T3 sequence (P0ADV7 22-211): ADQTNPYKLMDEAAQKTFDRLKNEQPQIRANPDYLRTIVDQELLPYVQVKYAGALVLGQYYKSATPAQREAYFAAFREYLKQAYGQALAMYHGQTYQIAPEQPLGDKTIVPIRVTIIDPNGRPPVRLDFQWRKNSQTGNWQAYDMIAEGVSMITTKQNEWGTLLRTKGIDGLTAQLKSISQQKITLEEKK


Key:
[1] = target: T1, OmpF3; assay: native MS of lipid-bound complex; type: binding; conditions: incubated with synthetic lipid; negative ion mode; MlaA-free trimer
[2] = target: T2, OmpF3–MlaA; assay: native MS of lipid-bound complex; type: binding; conditions: incubated with synthetic lipid
[3] = target: T3, MlaC; assay: native MS of lipid-loaded MlaC after buffer exchange; type: binding; conditions: 5 µM delipidated MlaC, 25 µM lipid, 5 min, 2xCMC C8E4, 200 mM ammonium acetate pH 7.0, no OmpF3–MlaA
[4] = target: the molecule itself; assay: native MS

Molecule | degree of phospholipid binding ([2]; positive and negative ion mode) | degree of phospholipid binding [2] | further results
CCCCCCCC/C=C\CCCCCCCC(=O)OC[C@H](COP(=O)([O-])OCC[N+](C)(C)C)OC(=O)CCCCCCC/C=C\CCCCCCCC [DOPC] | DOPC binds with high affinity to OmpF3 and OmpF3–MlaA | – | degree of phospholipid binding [1]: DOPC binds with high affinity to OmpF3 and OmpF3–MlaA
CCCCCCCC/C=C\CCCCCCCC(=O)OC[C@H](COP(=O)(O)OCCN)OC(=O)CCCCCCC/C=C\CCCCCCCC [DOPE] | DOPE binds with intermediate affinity, and its binding is strongly increased by MlaA | – | –
CCCCCCCC/C=C\CCCCCCCC(=O)OC[C@H](COP(=O)(O)OCC(O)CO)OC(=O)CCCCCCC/C=C\CCCCCCCC (stereo partly shown) [DOPG] | – | – | % MlaC loaded [3]: ~ 5%
CCCCCCCCCCCCCCCCCC(=O)OC[C@H](COP(=O)(O)OCC(O)CO)OC(=O)CCCCCCCCCCCCCCCCC (stereo partly shown) [DSPG] | – | Varying the degree of saturation (DSPG) or length (POPG) of the lipid chains | –
CCCCCCCC/C=C\CCCCCCCC(=O)O[C@H](COC(=O)CCCCCCCCCCCCCCC)COP(=O)(O)OCC(O)CO (stereo partly shown) [POPG] | – | Varying the degree of saturation (DSPG) or length (POPG) of the lipid chains | –
OmpF (natural protein) AEIYNKDGNKVDLYGKAVGLHYFSKGNGENSYGGNGDMTYARLGFKGETQINSDLTGYGQWEYNFQGNNSEGADAQTGNKTRLAFAGLKYADVGSFDYGRNYGVVYDALGYTDMLPEFGGDTAYSDDFFVGRVGGVATYRNSNFFGLVDGLNFAVQYLGKNERDTARRSNGDGVGGSISYEYEGFGIVGAYGAADRTNLQEAQPLGNGKKAEQWATGLKYDANNIYLAANYGETRNATPITNKFTNTSGFANKTQDVLLVAQYQFDFGLRPSIAYTKSKAKDVEGIGDVDLVNYFEVGATYYFNKNMSTYVDYIINQIDSDNKLGVGSDDTVAVGIVYQF | – | – | stoichiometry N [4]: 3
